What was measured:
[1] = system: extracellular Aβ (Aβ1-38, Aβ1-40, Aβ1-42); assay: Extracellular Aβ production in organotypic hippocampal slice cultures (MSD sandwich immunoassay); format: cell-based, mice
Method: Organotypic hippocampal slice cultures (OHSC) were prepared from newborn (P0-P3) C57B16 or for transgenic 3×Tg-AD mice and were cultured according the interface method (Gogolla et al., 2006). OHSC were kept for 7 days in vitro (div) at 37° C. in a humidified atmosphere (5% CO2) before treatment. Medium was changed every other day.
For acute exposure, neurons were exposed to various concentration of Aftin-5 for 18 hours for acute exposure. […]
All Aβ peptides assays in the samples were performed using V-PLEX Aβ Peptide Panel 1 (4G8) Kit (MSD Technologies_K15199E-1). All plates were read on the SECTOR Imager 2 400 (MSD Technologies). The Aβ peptides assay is based on the principle of the sandwich immunoassay. All assays have followed strictly the protocol kit and all reagents were from Meso Scale Discovery. Briefly, a 96-well plate having 4 spots pre-coated with the corresponding antibodies is provided by MSD Technology (4-spot MULTI-SPOT plates). Before adding the samples, a first saturation step is required. Once the plate is satured and washed, 25 μL of sample (or calibrators) per well are loaded, then 25 μL of the Detection Antibody solution (MSD SULFO-TAG). The plate is incubated for 2 hours. At the end of the incubation, the plate is washed and then a chemical solution (Read buffer 2×) is added allowing electrochemiluminescence. After a short incubation (5 min) at room temperature, the plate is read on the SECTOR Imager 2400. The instrument measures the intensity of the light electrochemiluminescence.

[2] = system: aggregates of β-pleated sheets; assay: Thioflavin-S immunohistochemistry of total brain tissue of treated mice; format: in vivo; settings: mice treated during 28 days
Method: C57B1 were exposed subcutaneously to Aftin-5 using osmotic minipumps ([…]; Saint-Germain-Nuelles, France). Aftin-5 was dissolved in DMSO:propylene glycol:ethanol (45:45:10). Mice were treated with 1, 3 or 30 mg/Kg for 28 days. Filled pumps were left in saline overnight at 37° C. for priming. Mice were anesthetized with isoflurane (3-4% v/v, 1.5 mL/min) in an induction chamber and maintained under anesthesia through a mask. Mice were shaved on their back, disinfected and an incision made between the scapulae for pump implantation and finally closed with clips. 1% lidocaine gel was applied over the incision for local analgesia. Animals recovered from anesthesia in heated pads and immediately returned to the cages.
Immunohistochemistry assay was conducted with the total brain tissue, from mice treated with Aftin-5 during 28 days, in the presence of Thioflavin-S dye, which binds aggregates of β-pleated sheets.

[3] = system: CREB; assay: CREB mRNA in OHSC (RT-qPCR); format: cell-based; settings: OHSCs from WT mice, 50 μM, 10 days
Method: FIG. 15. Plots illustrating the effect of Aftin-5 on relative mRNA expression levels of Long Term Potentialisation (LTP) biomarkers, i.e CREB (A), PSD95 (B) and BDNF (C) in C57B16J OHSC mice treated chronically with Aftin-5. OHSC culture media of OHSC were replaced by incubation medium containing Aftin-5 (50 μM; A50) or vehicle (0.1% DMSO; Veh). 10 days later, total mRNA in lysate was isolated and purified, cDNAs were then synthesized from […] of total mRNA. cDNAs were amplified by quantitative RT-PCR and the relative expression of specific genes was normalized to the housekeeping gene HPRT1 (2^—ΔCt). […] Data expressed as means+/−SEM from q=3 independent experiments with n=4-6 inserts/condition and 10 slices/insert. […]
The impact of Aftin-5 on gene expression of different biomarkers was determined by measuring mRNA levels of selected BDNF, CREB, PS95, INS Receptor/IGF-1 receptor, IL-1β, IL-6 in OHSC treated chronically with Aftin-5 or in a total brain from mice exposed to Aftin-5 at either 8 or 30 mg/Kg. […] RNA concentration was measured spectrophotometrically at 260 nm in a NanoDrop 2000c (Thermo Scientific, Villebon-sur-Yvette, France) (sample A260 nm/A280 nm ratios over 1.8 indicated reduced genomic DNA contamination). cDNAs were synthesized from 0.5 μg of total RNA with RT^2 First Strand kit (Qiagen, Courtaboeuf, France) according to the manufacturer's protocol and stored at −80° C. […]

[4] = system: in vitro cell based rat BBB model
[5] = in vitro; settings: rat
[6] = chronic treatment of OHSC (10 days)

modulation of Aβ1-42/Aβ1-40 ratio induced by Aftin-5 in presence of γ-secretase inhibitor BMS ([1]; OHSC, Aftin-5 50 μM with BMS (10 μM), 10 days): no changes
aggregates of β-pleated sheets (Thioflavin-S binding) [2]: absence
Papp compared to Papp value of memantine [4]: not significantly different
Papp at 60 min, 10 μM [5]: ~35 ×10⁻⁶ cm/s
Compound: CC[C@H](CO)Nc1nc(N(C)c2ccccc2)c2ncn(C(C)C)c2n1 [Aftin-5]
Aβ1-38 [1, 6]: decrease
Aβ1-40 [1, 6]: remained unchanged
concentration ratio Aβ1-42/Aβ1-40 [1, 6]: slight but significant increase
production of Aβ1-42 ([1]; chronic treatment of OHSC (10 days), P<0.0001): increase
CREB mRNA [3]: transcriptional upregulation

From patent US11472807B2, “Purine derivatives for use as medicament and for use in treating neurodegenerative or neuro-inflammatory disorders” (COMMISSARIAT À L'ENERGIE ATOMIQUE ET AUX ENERGIES …, priority 2017, dated 2022)
